Data set [1] is described as follows: Plasma pharmacokinetics of phytochemicals after intraperitoneal injection. The procedure: (§1) Male ICR mice (age: 5–6 weeks old; body weight: 30 ± 2 g) were purchased from Samtako Co. (Osan, Gyeonggi-do, Korea), housed in plastic cages and given free access to a standard animal diet (Daejong, Seoul, Korea) and water. The environment was maintained under the following conditions: temperature, 23 ± 1 °C; 12-h light-dark cycle; and relative humidity, 50% ± 10%. The animals were acclimatized for a minimum period of 1 week and fasted overnight prior to experimentation.
(§2) The mice were randomly divided into four groups. Each group was pretreated with either control vehicle (a mixture of DMSO:PEG 400:distilled water; 5:45:50, v/v), piperine (10 mg/kg), capsaicin (5 mg/kg), or [6]-gingerol (5 mg/kg). The treatment solutions of piperine, capsaicin and [6]-gingerol were prepared by the dissolution of each compound in the DMSO:PEG 400:distilled water mixture at concentrations of 2, 1 and 1 mg/mL, respectively. The treatment solutions were administered intraperitoneally twice with τ = 60 min for control vehicle and piperine and τ = 30 min for capsaicin and [6]-gingerol. […] The physiological conditions of the animals were carefully monitored during the study.
(§3) The volume of injected dosing vehicle was 5 mL/kg. […] Plasma was harvested by centrifugation at 16,000× g for 10 min and immediately stored at −20 °C until analysis. […] All excised tissues were accurately weighed and homogenized (Tissue Tearor, Biospec Products Inc., Bartlesville, OK, USA) with appropriate volumes of isotonic saline. The obtained tissue homogenates were stored at −20 °C until analysis.
(§4) Sample analyses were conducted on an Agilent 6430 triple quadrupole mass spectrometer coupled with an Agilent 1200 HPLC (Agilent, Santa Clara, CA, USA). […] Chromatographic separation was performed using a binary gradient mobile phase composed of acetonitrile (A) and 0.05% formic acid (B) and programmed as follows: initial conditions, 20% A (0.3 mL/min) for 0.1 min and 80% A for 3 min; increased to 90% A in 0.1 min and maintained for 1 min; returned to the initial composition; followed by a 3.2-min equilibration step (1.5 min for 0.3 mL/min and then 1.7 min for 0.5 mL/min). The ESI source was operated in positive mode with curtain and nebulizer gas set at 10 and 20 psi, respectively. The capillary voltage and gas temperature were 4000 V and 300 °C, respectively.
(§5) The IS working solution (20 μL of 100 ng/mL IS solution for plasma and 50 μL of 100 ng/mL IS solution for tissue samples) and acetonitrile (50 μL for plasma and 80 μL for tissue samples) were added to 20 μL of plasma and 50 μL of tissue samples and mixed on a vortex mixer for 1 min. The mixture was then centrifuged at 16,000× g (Biofuge Fresco, Kendro, Osterode, Germany) for 10 min. For tissue samples, 100 μL of the supernatant was re-precipitated with an equal volume of acetonitrile and centrifuged at 16,000× g for 10 min. Finally, 50 μL distilled water was added to 50 μL of each supernatant, followed by mixing and injection of 10 μL of the sample mixture onto the LC-MS/MS. Data acquisition was performed with MassHunter Quantitative Analysis (Agilent, Santa Clara, CA, USA).
(§6) The pharmacokinetic parameters were determined by non-compartmental analysis using Phoenix® WinNonlin® 6.4 (Certara, L.P., Princeton, NJ, USA). As the procedure entailed destructive sampling, the non-compartmental analysis was performed by using the average plasma concentration vs. time data. These parameters included terminal half-life (t1/2), area under the plasma concentration-time curve from time zero to infinity (AUCinf), apparent volume of distribution during the terminal phase (Vz), the volume of distribution at steady state (Vss) and systemic clearance (CL).

The nature of another data set: in vivo. To be noted: for Increase of the Kp of doxorubicin in the kidney by pretreatment, comparing with control: 2 h after administration; for Increase of the Kp of doxorubicin in the liver by pretreatment: mice (matches 2 h values of Table 4). The procedure: as §1, §2, §3, §4, §5, §6
Data set [2] deals with P-gp. To be noted: cited from earlier work; for IC50: Caco-2 cells.
In data set [3] the test system is P-gp. Particulars: ref [7], cited from earlier work; for Effects on the P-gp mediated transport in vitro: KB-C2; for Increase of accumulation of rhodamine 123: KB-C2 cells.
In the next data set the test system is KB-C2 cells. Particulars: substrate Vinblastine, ref [7]; cited from earlier work.
The next data set has as its system Caco-2 cells. Particulars: ref [6]; cited from earlier work.
The next data set relates to mice. To be noted: cited from earlier work.
Data set [4] in a line: Plasma pharmacokinetics of doxorubicin i.v. in mice pretreated with phytochemical P-gp modulators. Particulars: male, ICR, mouse, in vivo, iv, 1 mg/kg, i.v. 1 mg/kg; for C0: C0 of doxorubicin; for clearance: CL of doxorubicin; for half-life: t1/2 of doxorubicin. The procedure:
as §1, §2, §3, §4, §5, §6

For data set [5] the following is noted: cited from earlier work.
Data set [6] in a line: Tissue distribution of phytochemicals after intraperitoneal administration. Particulars: mouse, in vivo, ip. The procedure: as §1
The mice were randomly divided into four groups. Each group was pretreated with either control vehicle (a mixture of DMSO:PEG 400:distilled water; 5:45:50, v/v), piperine (10 mg/kg), capsaicin (5 mg/kg), or [6]-gingerol (5 mg/kg). […] The physiological conditions of the animals were carefully monitored during the study. […]
The IS working solution (20 μL of 100 ng/mL IS solution for plasma and 50 μL of 100 ng/mL IS solution for tissue samples) and acetonitrile (50 μL for plasma and 80 μL for tissue samples) were added to 20 μL of plasma and 50 μL of tissue samples and mixed on a vortex mixer for 1 min. […] Data acquisition was performed with MassHunter Quantitative Analysis (Agilent, Santa Clara, CA, USA).
The pharmacokinetic parameters were determined by non-compartmental analysis using Phoenix® WinNonlin® 6.4 (Certara, L.P., Princeton, NJ, USA). […]

The subject of another data set is P-gp, MRP1 and BCRP. Particulars: ref [30], cited from earlier work.
Data set [7] relates to MCF-7/DOX, A-549/DDP cells. To be noted: ref [30], cited from earlier work.
A further data set concerns ABC transporter genes. To be noted: MCF-7/DOX, A-549/DDP; ref [30]; cited from earlier work.
The mark [8] stands for this setting: male, ICR, mouse, in vivo, ip, 5 mg/kg.
Setting [9] is: male, ICR, mouse, in vivo, ip, 10 mg/kg.
Setting [10] is: A-549/DDP, substrate Doxorubicin.

Structures are written as SMILES. “Also recorded” adds a separate entry of the source. Where two headings read alike, the source gives them in different places. Bounds are passed on as bounds.

On to `COc1cc(CNC(=O)CCCC/C=C/C(C)C)ccc1O` [Capsaicin], for which the Detection in plasma result in data set [1] (i.p. 5 mg/kg, mice, plasma) is reported as “not detected 2–4 h after administration”. In addition, in data set [1] (setting [8]), the AUC(0-inf) was 66.8 ng·h/mL, the CL/F was determined as 1250 mL/min/kg, the Cmax was found to be 119 ng/mL and the Tmax worked out at 0.17 h. In data set [1] (setting [8]), this compound gave a Vd/F of 35.7 L/kg and a half-life of 0.33 h. In the data set “in vivo” (brain, 2 h, mice), the “Increase of the Kp of doxorubicin in the brain by pretreatment” value came out at 3.33 fold. Further, the “Increase of the Kp of doxorubicin in the kidney by pretreatment, comparing with control” value in “in vivo” (mice) is recorded as 1.95 fold. Further, in the data set “in vivo”, the “Increase of the Kp of doxorubicin in the liver by pretreatment” value is reported as 6.21 fold. The “Effects on the P-gp mediated transport in vitro” value in the data set with P-gp [2] (Caco-2, substrate [3H] Digoxin, ref [6]) is recorded as “inhibited digoxin efflux mediated by P-gp; also recorded: Inhibited P-gp mediated efflux transport”. In the data set with P-gp [3] (substrate Daunorubicin), the “Effects on the P-gp mediated transport in vitro” value is reported as “Increased cellular accumulation”. In addition, the “Effects on the P-gp mediated transport in vitro” value in the data set with P-gp [3] (substrate Rhodamine 123) is “Inhibited efflux transport”. Also, in the data set with P-gp [3] (50 μmol/L capsaicin), the “Increase of accumulation of rhodamine 123” value was 4 fold. The “Effects on the P-gp mediated transport in vitro” value in the data set on KB-C2 cells is “Increased vinblastine cytotoxicity by inhibition of efflux transporter”. In addition, in the data set on Caco-2 cells, the Cytotoxicity entry is given as “no resulting cytotoxicity”. Also, the LD50 in the data set with mice (i.p., mice, ref [57],[58]) was 7.6 mg/kg.
On to `COc1cccc2c1C(=O)c1c(O)c3c(c(O)c1C2=O)C[C@@](O)(C(=O)CO)C[C@@H]3O[C@H]1C[C@H](N)[C@H](O)[C@H](C)O1` [Doxorubicin], for which the C0 in data set [4] (pretreatment Capsaicin) worked out at 4430 ng/mL; in [4] (pretreatment Control), 3980 ng/mL; in [4] (pretreatment Piperine) it was 3400 ng/mL; in [4] (pretreatment [6]-Gingerol), 4040 ng/mL. In addition, the clearance is 25.2 mL/min/kg in data set [4] (pretreatment Capsaicin), 31 mL/min/kg in [4] (pretreatment Control), 25.6 mL/min/kg in data set [4] (pretreatment Piperine) and 28.8 mL/min/kg in data set [4] (pretreatment [6]-Gingerol). Besides, the half-life in [4] (pretreatment Capsaicin) was 13.3 h; in data set [4] (pretreatment Control) it was 17.4 h; in data set [4] (pretreatment Piperine), 15.7 h; in [4] (pretreatment [6]-Gingerol) it was 15.5 h. Moreover, the Kp in “in vivo” (male, ICR, mouse, in vivo, iv, 1 mg/kg, Doxorubicin Kp values) is greater than 35.4. Besides, the “Injected doxorubicin excreted in bile” value in [5] (bile duct-cannulated rats, ref [45]) is reported as 33–35%. Besides, the “Injected doxorubicin eliminated via urine” value in [5] (bladder-cannulated rats, ref [45]) was 4–8%. Moreover, the “Initial dose appearing in the bile as unchanged doxorubicin” value in [5] (rats, within 3 h, ref [43]) is given as “approximately 30%”.
For `O=C(/C=C/C=C/c1ccc2c(c1)OCO2)N1CCCCC1` [Piperine], in data set [1] (setting [9]), the total exposure AUC(0-inf) was 9960 ng·h/mL. This compound also came in with a CL/F in [1] (setting [9]) of 16.7 mL/min/kg. The concentration in [1] (setting [9]) peaked (Cmax) at 5050 ng/mL. Further, the Tmax in data set [1] (setting [9]) stood at 0.75 h. The Vd/F in data set [1] (setting [9]) is 9.12 L/kg. The compound also gave a half-life in [1] (setting [9]) of 6.3 h. In [6] (male, ICR, 10 mg/kg), this compound came in with a Kp at 2 h of 1.69 ± 0.28. The “Increase of the Kp of doxorubicin in the kidney by pretreatment, comparing with control” value in “in vivo” (mice) is reported as 2.23 fold. The “Increase of the Kp of doxorubicin in the liver by pretreatment” value in “in vivo” was 5.44 fold. For the same compound, the “Effects on the P-gp mediated transport in vitro” value in the data set with P-gp [2] (Caco-2, L-MDR1, substrate [3H] Digoxin, ref [5]) was “Inhibited P-gp mediated efflux transport”; in the data set on P-gp [2] (Caco-2, substrates Digoxin, Cyclosporin A, ref [4]), “Inhibited P-gp mediated efflux transport”; in the data set on P-gp, MRP1 and BCRP (setting [10]) it was “Inhibited efflux activity of P-gp, MRP1 and BCRP”; with P-gp, MRP1 and BCRP (MCF-7/DOX, substrates Rhodamine 123, Mitoxantrone), “Inhibited efflux activity of P-gp, MRP1 and BCRP”; in data set [7] (setting [10]) it was “Increased cytotoxicity by reversing transporter mediated doxorubicin and mitoxantrone resistance”; in data set [7] (substrate Mitoxantrone), “Increased cytotoxicity by reversing transporter mediated doxorubicin and mitoxantrone resistance”. The “Effects on the P-gp mediated transport in vitro” value in the data set with ABC transporter genes is reported as “Inhibited transcription of the corresponding ABC transporter genes”. The IC50 is 74.1 µM with P-gp [2] (cyclosporine A, ref [4], read-out: IC50, inhibition of transport of P-gp substrate cyclosporine A) and 15.5 µM in the data set with P-gp [2] (digoxin, ref [4], read-out: IC50, inhibition of transport of P-gp substrate digoxin). For the same compound, the LD50 in the data set on mice (mouse, in vivo, ip) is on record as 60 mg/kg.
Take `CCCCC[C@H](O)CC(=O)CCc1ccc(O)c(OC)c1` [[6]-Gingerol]: in [1] (setting [8]), the area under the curve AUC(0-inf) was determined as 66.3 ng·h/mL, the CL/F stood at 1260 mL/min/kg, the Cmax stood at 153 ng/mL and the Detection in plasma entry is “not detected 2–4 h after administration”. Further, in [1] (setting [8]), the Tmax turned out to be 0.17 h, the Vd/F stood at 148 L/kg and the half-life is 1.36 h. In addition, the “Detection in brain, heart and testis” value in data set [6] is reported as “not detected”. Besides, the “Effects on the P-gp mediated transport in vitro” value in the data set with P-gp [2] (Caco-2, L-MDR1, substrate [3H] Digoxin, ref [8]) was “Inhibited P-gp mediated efflux transport”. The “Effects on the P-gp mediated transport in vitro” value in the data set on P-gp [2] (Caco-2, L-MDR1, substrate [3H] Digoxin, ref [8], listed as [6]-gingerol) is on record as “inhibited P-gp-mediated digoxin transport”. Also, the “Effects on the P-gp mediated transport in vitro” value in the data set on P-gp [3] (substrate Daunorubicin) is on record as “Increased cellular accumulation”. The “Effects on the P-gp mediated transport in vitro” value in the data set on P-gp [3] (substrate Rhodamine 123) is on record as “Inhibited efflux transport”. Further, in the data set on P-gp [3] (in the presence of [6]-gingerol), the “Increase of accumulation of rhodamine 123” value is recorded as 2.24 fold. For the same compound, the “Effects on the P-gp mediated transport in vitro” value in the data set with KB-C2 cells is “Increased vinblastine cytotoxicity by inhibition of efflux transporter”. Besides, the LD50 in the data set on mice (mouse, in vivo, ip) is listed as 58.1 mg/kg.

The values above are taken from PMC6017107 (Molecules : A Journal of Synthetic Chemistry and Natural …, 2018).
